Bounds are passed on as bounds.

Data on 46 compounds can be found in US20230009608A1, “GRK2 INHIBITORS AND USES THEREOF” (Cygnal Therapeutics, Inc., priority 2020, published 2023).

The target of one assay is T1, GRK2 (Homo sapiens, UniProt P25098).
T1 construct: purchased SignalChem A14-10G
T1 sequence (P25098 1-689): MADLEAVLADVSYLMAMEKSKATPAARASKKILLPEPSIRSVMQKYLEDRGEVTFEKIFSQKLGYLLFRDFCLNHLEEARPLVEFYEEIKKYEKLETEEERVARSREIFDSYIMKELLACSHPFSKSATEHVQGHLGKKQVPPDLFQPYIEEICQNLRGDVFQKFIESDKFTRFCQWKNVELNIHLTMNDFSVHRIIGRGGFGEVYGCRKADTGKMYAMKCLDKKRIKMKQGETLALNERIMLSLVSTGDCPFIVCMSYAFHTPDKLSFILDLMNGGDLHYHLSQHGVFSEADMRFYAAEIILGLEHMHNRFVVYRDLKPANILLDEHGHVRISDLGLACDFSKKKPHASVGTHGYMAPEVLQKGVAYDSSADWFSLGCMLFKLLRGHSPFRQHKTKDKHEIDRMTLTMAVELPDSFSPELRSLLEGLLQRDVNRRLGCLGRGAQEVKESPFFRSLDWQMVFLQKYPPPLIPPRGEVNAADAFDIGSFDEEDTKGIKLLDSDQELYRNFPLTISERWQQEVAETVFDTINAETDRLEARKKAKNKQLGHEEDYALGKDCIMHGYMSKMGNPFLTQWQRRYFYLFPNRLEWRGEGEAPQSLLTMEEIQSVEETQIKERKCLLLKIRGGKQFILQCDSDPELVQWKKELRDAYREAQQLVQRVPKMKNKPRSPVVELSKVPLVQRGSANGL
In words: GRK2 Inhibition Assay (TR-FRET, Example 7). The assay is classed as biochemical. The following applies: Enzyme Assay B, TR-FRET (Example 7); read-out: B: Enzymatic GRK2: IC50 (nM) (Example 7). The procedure:
Enzyme GRK2 (1 nM final concentration) was diluted in 25 mMv HEPES, 10 mM MgCl2, 2 mM DTT, 0.01% Tween-20, and 1 mM EGTA. Then the GRK2 mixture was added into ProxiPlate-384 white plate and pre-incubated for 30 min with test compounds at room temperature. ATP (7 μM final concentration) and Ulight TopoIIα (50 nM final concentration) were added into the assay plate to initiate the reaction and the mixture was incubated at room temperature for 90 min. Then, Eu anti-TopoIIα (0.12 nM final concentration), BSA (0.01% final concentration), and EDTA (11 mMv final concentration) in LANCE assay buffer were added into each well. After 60 min incubation time at room temperature, TR-FRET signal was measured by EnVision plate reader.

Assay [1] deals with PAXF1657 control empty vector cell line. In words: 7-day proliferation assay, PAXF1657 control empty vector cell line (Example 9). Format: cell-based. Particulars: 168 h; Cell Line: PAXF1657 empty vector (EV) cell line; 7-day; read-out: C: 7-day proliferation assay: IC50 GeoMean. The method in brief: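 Seven-day growth in PAXF1657 lines engineered for GRK2 overexpression or knockout, measured by CellTiter-Glo; compounds tested at 30 μM-0.0002 μM final and replenished once at day 3.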

Consider `Cn1c(CNc2cccc(C(=O)NCc3cc[nH]n3)c2)nnc1-c1ccncn1`, for which the IC50 was 39 nM at GRK2 and greater than 10000 nM in assay [1].
The matching figures for `CCCn1c(CNc2cccc(C(=O)NCc3ccccc3C(F)(F)F)n2)nnc1-c1ccncn1`: 200 nM and greater than 10000 nM.
For `O=C(NCc1cccc2c1OCC2)c1cccc(NCc2nnc(-c3ccncc3)n2CCO)c1` the same measures were 6.3 nM and 6080 nM.
For `O=C(NCc1cccc(F)c1)c1cccc(NCc2nnc(-c3ccncc3)n2CCO)c1` the same measures were 9.2 nM and greater than 30000 nM.
Regarding `O=C(N[C@H]1CCOc2ccccc21)c1cccc(NCc2nnc(-c3ccncc3)n2CCO)c1`, the IC50 on GRK2 turned out to be 8.2 nM; in assay [1], 4580 nM.
The matching figures for `O=C(NCc1cccnc1C(F)(F)F)c1cccc(NCc2nnc(-c3ccncc3)n2CCO)c1`: 5.2 nM and greater than 30000 nM.
As to `COc1ccc(CNC(=O)c2cccc(NCc3nnc(-c4ccncc4)n3CCO)c2)c(F)c1`, the IC50 was 4.9 nM on GRK2 and greater than 30000 nM in assay [1].
For `COc1cccc(OC)c1CNC(=O)c1cccc(NCc2nnc(-c3ccncc3)n2CCO)c1` the same measures were 23 nM and greater than 30000 nM.
For `CCOc1ccccc1CNC(=O)c1cccc(NCc2nnc(-c3ccncc3)n2CCO)c1` the same measures were 19 nM and 6310 nM.
For the compound `COc1ncccc1CNC(=O)c1cccc(NCc2nnc(-c3ccncc3)n2CCO)c1`, the IC50 turned out to be 20 nM at GRK2 and 256 nM in assay [1].
The matching figures for `O=C(NCc1c(F)cccc1F)c1ccnc(NCc2nnc(-c3ccncc3)[nH]2)c1`: 34 nM and greater than 30000 nM.
The matching figures for `CCc1cnccc1CNC(=O)c1cccc(NCc2nnc(-c3ccncc3Cl)n2C)c1`: 79 nM and greater than 30000 nM.
On to `CCc1cnccc1CNC(=O)c1cccc(NCc2nnc(-c3ccncc3F)n2C)c1`, for which the IC50 amounted to 41 nM at GRK2 and 1480 nM in assay [1].
For the compound `O=C(NCc1cccc2c1OCC2)c1cccc(NCc2nnc(-c3ccncn3)n2CCCO)c1`, the IC50 was determined as 4.2 nM at GRK2 and 14500 nM in assay [1].
For `O=C(NCc1cccnc1C(F)(F)F)c1cccc(NCc2nnc(-c3ccncn3)n2CCCO)c1` the same measures were 5.8 nM and greater than 30000 nM.
For `CCc1cnccc1CNC(=O)c1cccc(NCc2nnc(-c3ccncn3)n2CCCNC)c1` the same measures were 94 nM and greater than 30000 nM.
For `Cn1c(CNc2cc(C(=O)NCc3cnc4ccccn34)ccn2)nnc1-c1ccncn1` the same measures were 7.9 nM and 2750 nM.
Regarding `Cc1cccc2ncc(CNC(=O)c3ccnc(NCc4nnc(-c5ccncn5)n4C)c3)n12`, the IC50 on GRK2 is 24 nM; in assay [1], greater than 30000 nM.
The matching figures for `Cn1c(CNc2cc(C(=O)NCc3cccnc3C(F)(F)F)ccn2)nnc1-c1ccncn1`: 11 nM and greater than 30000 nM.
The matching figures for `Cc1cccc([C@H](CO)NC(=O)c2ccnc(NCc3nnc(-c4ccncn4)n3C)c2)c1`: 16 nM and greater than 30000 nM.
The matching figures for `Cc1cccc([C@@H](CO)NC(=O)c2ccnc(NCc3nnc(-c4ccncn4)n3C)c2)c1`: 96 nM and greater than 30000 nM.
With `Cn1c(CNc2cc(C(=O)N[C@@H]3COc4ccccc43)ccn2)nnc1-c1ccncn1`, the results for the IC50 (on GRK2; in assay [1]) were 26 nM and 1800 nM, respectively.
For `Cn1c(CNc2cc(C(=O)N[C@H]3CCOc4c(Cl)cccc43)ccn2)nnc1-c1ccncn1` the same measures were 63 nM and greater than 30000 nM.
For `Cn1c(CNc2cc(C(=O)N[C@@H]3CCOc4c(Cl)cccc43)ccn2)nnc1-c1ccncn1` the same measures were 20 nM and 2070 nM.
As for `C[C@@H](NC(=O)c1ccnc(NCc2nnc(-c3ccncn3)n2C)c1)c1ncccc1Cl`, the IC50 at GRK2 is 55 nM; in assay [1], greater than 30000 nM.
The matching figures for `C[C@H](NC(=O)c1ccnc(NCc2nnc(-c3ccncn3)n2C)c1)c1ncccc1Cl`: 65 nM and greater than 30000 nM.
For `CCc1cnccc1CNC(=O)c1cccc(NCc2nnc(-c3ccncn3)n2CCCOC)c1` the same measures were 23 nM and greater than 30000 nM.
`O=C(NCc1cccc2c1OCC2)c1cccc(NCc2nnc(-c3ccncn3)n2CCO)c1`: the IC50 on GRK2 was 1.7 nM; in assay [1], greater than 30000 nM.
As for `Cc1cccnc1CNC(=O)c1cccc(NCc2nnc(-c3ccncn3)n2CCO)c1`, the IC50 worked out at 2.5 nM at GRK2 and 1160 nM in assay [1].
For `O=C(NCc1ccncc1Cl)c1cccc(NCc2nnc(-c3ccncn3)n2CCO)c1` the same measures were less than 2.9 nM and greater than 2970 nM.
For the compound `O=C(NCc1cnc2ccccn12)c1cccc(NCc2nnc(-c3ccncn3)n2CCO)c1`, the figures for the IC50 (at GRK2; in assay [1]) were less than 0.51 nM and 580 nM, respectively.
The matching figures for `Cc1cccc2ncc(CNC(=O)c3cccc(NCc4nnc(-c5ccncn5)n4CCO)c3)n12`: 1 nM and 3080 nM.
`O=C(NCc1cccnc1C(F)(F)F)c1cccc(NCc2nnc(-c3ccncn3)n2CCO)c1`: the IC50 on GRK2 was 0.98 nM; in assay [1] it was greater than 30000 nM.
The matching figures for `Cc1cc2c(cc1CNC(=O)c1cccc(NCc3nnc(-c4ccncn4)n3CCO)c1)OCCO2`: 1.4 nM and greater than 30000 nM.
The matching figures for `O=C(N[C@@H]1CCOc2c(Cl)cccc21)c1cccc(NCc2nnc(-c3ccncn3)n2CCO)c1`: 4.6 nM and 123 nM.
The matching figures for `O=C(N[C@H]1CCOc2c(Cl)cccc21)c1cccc(NCc2nnc(-c3ccncn3)n2CCO)c1`: 1.5 nM and 163 nM.
Turning to `Cc1cccc([C@@H](CO)NC(=O)c2cccc(NCc3nnc(-c4ccncn4)n3CCO)c2)c1`, the results for the IC50 (on GRK2; in assay [1]) were 1.1 nM and 1510 nM, respectively.
Turning to `O=C(N[C@H]1COc2ccccc21)c1cccc(NCc2nnc(-c3ccncn3)n2CCO)c1`, the IC50 was less than 0.51 nM on GRK2 and 107 nM in assay [1].
With `C[C@@H](NC(=O)c1cccc(NCc2nnc(-c3ccncn3)n2CCO)c1)c1ncccc1Cl`, the IC50 is less than 0.51 nM at GRK2 and 803 nM in assay [1].
For `COCCCn1c(CNc2cccc(C(=O)NCc3cccnc3C(F)(F)F)c2)nnc1-c1ccncn1` the same measures were 15 nM and 1200 nM.
As to `COCCOc1cccc(CNC(=O)c2cccc(NCc3nnc(-c4ccncn4)n3C)c2)c1`, the IC50 was determined as 39 nM at GRK2 and 779 nM in assay [1].
For `C#Cc1ccc(OS(=O)(=O)F)c(CNC(=O)c2cccc(NCc3nnc(-c4ccncc4)[nH]3)c2)c1` the same measures were 13 nM and greater than 7500 nM.
For `O=C(NCc1cccnc1C(F)(F)F)c1cccc(NCc2nnc(-c3ccncn3)n2CCCN2CCC[C@H]2CO)c1` the same measures were 1000 nM and greater than 30000 nM.
For the compound `Cn1c(CNc2cccc(C(=O)N[C@@H]3CCOc4c(Br)cccc43)c2)nnc1-c1ccncn1`, the IC50 on GRK2 turned out to be 13 nM; in assay [1] it was 1630 nM.
The matching figures for `Cn1c(CNc2cccc(C(=O)N[C@H]3CCOc4c(Br)cccc43)c2)nnc1-c1ccncn1`: 3.6 nM and greater than 30000 nM.
For `Cc1ccc2c(c1)[C@H](NC(=O)c1cccc(NCc3nnc(-c4ccncn4)n3C)c1)CCO2` the same measures were 4.6 nM and 196 nM.
